Data published in PubChem BioAssay (NCI).
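Each compound was tested at five concentrations against cells in 96-well plates for 48 hours. GI50 = concentration required for 50% inhibition of growth. TGI: concentration producing complete growth inhibition.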

Legend:
Experiment in all cases: growth of human tumour cells (NCI), 48 h
RPMI-8226 leukemia = test system: RPMI-8226 leukemia
NCI-H460 lung = test system: NCI-H460 lung
NCI-H23 lung = test system: NCI-H23 lung
OVCAR-5 ovarian = test system: OVCAR-5 ovarian
OVCAR-4 ovarian = test system: OVCAR-4 ovarian
KM12 colon = test system: KM12 colon
SK-MEL-2 melanoma = test system: SK-MEL-2 melanoma
NCI/ADR-RES ovarian = test system: NCI/ADR-RES ovarian
SF-268 CNS = test system: SF-268 CNS
BT-549 breast = test system: BT-549 breast
ACHN renal = test system: ACHN renal
SK-OV-3 ovarian = test system: SK-OV-3 ovarian
786-0 renal = test system: 786-0 renal
HL-60(TB) leukemia = test system: HL-60(TB) leukemia
PC-3 prostate = test system: PC-3 prostate
HOP-92 NSCLC = test system: HOP-92 NSCLC
CCRF-CEM leukemia = test system: CCRF-CEM leukemia
MALME-3M melanoma = test system: MALME-3M melanoma
EKVX NSCLC = test system: EKVX NSCLC
SNB-75 CNS = test system: SNB-75 CNS
A549 NSCLC = test system: A549 NSCLC
T-47D breast = test system: T-47D breast
SN12C renal = test system: SN12C renal
SF-295 CNS = test system: SF-295 CNS
SK-MEL-28 melanoma = test system: SK-MEL-28 melanoma
SNB-19 CNS = test system: SNB-19 CNS
SW-620 colon = test system: SW-620 colon
OVCAR-3 ovarian = test system: OVCAR-3 ovarian
CAKI-1 renal = test system: CAKI-1 renal
MCF7 breast = test system: MCF7 breast
UACC-257 melanoma = test system: UACC-257 melanoma
UO-31 renal = test system: UO-31 renal
TK-10 renal = test system: TK-10 renal
SR leukemia = test system: SR leukemia
COLO 205 colon = test system: COLO 205 colon
HCT-15 colon = test system: HCT-15 colon
HCC-2998 colon = test system: HCC-2998 colon
NCI-H226 lung = test system: NCI-H226 lung
MOLT-4 leukemia = test system: MOLT-4 leukemia
UACC-62 melanoma = test system: UACC-62 melanoma
HT29 colon = test system: HT29 colon
MDA-MB-435 = test system: MDA-MB-435
OVCAR-8 ovarian = test system: OVCAR-8 ovarian
SK-MEL-5 melanoma = test system: SK-MEL-5 melanoma
K-562 leukemia = test system: K-562 leukemia
A498 renal = test system: A498 renal
MDA-MB-231 breast = test system: MDA-MB-231 breast
M14 melanoma = test system: M14 melanoma
U251 CNS = test system: U251 CNS
HOP-62 NSCLC = test system: HOP-62 NSCLC
HS 578T breast = test system: HS 578T breast
LOX IMVI melanoma = test system: LOX IMVI melanoma
HCT-116 colon = test system: HCT-116 colon
RXF 393 renal = test system: RXF 393 renal
NCI-H522 lung = test system: NCI-H522 lung
DU-145 prostate = test system: DU-145 prostate
IGROV1 ovarian = test system: IGROV1 ovarian

CN(C)CCN1C(=O)c2c(c3c4ccccc4n4c3c3c2c2ccccc2n3C2CC(O)C(O)C4(C)O2)C1=O (centres undefined)
GI50 (RPMI-8226 leukemia): 1.58 µM | TGI (RPMI-8226 leukemia): 7.82 µM | GI50 (NCI-H460 lung): 0.232 µM | TGI (NCI-H460 lung): 5.08 µM | GI50 (NCI-H23 lung): 1.81 µM | TGI (NCI-H23 lung): 9.75 µM | GI50 (OVCAR-5 ovarian): 4.43 µM | TGI (OVCAR-5 ovarian): 27.6 µM | GI50 (OVCAR-4 ovarian): 2.69 µM | TGI (OVCAR-4 ovarian): 13.6 µM | GI50 (KM12 colon): 1.74 µM | TGI (KM12 colon): 10.2 µM | GI50 (SK-MEL-2 melanoma): 2.97 µM | TGI (SK-MEL-2 melanoma): 9.2 µM | GI50 (NCI/ADR-RES ovarian): 8.2 µM | TGI (NCI/ADR-RES ovarian): 23.3 µM | GI50 (SF-268 CNS): 1.46 µM | TGI (SF-268 CNS): 8.76 µM | GI50 (BT-549 breast): 5.32 µM | TGI (BT-549 breast): 13 µM | GI50 (ACHN renal): 0.816 µM | TGI (ACHN renal): 3.37 µM | GI50 (SK-OV-3 ovarian): 1.8 µM | TGI (SK-OV-3 ovarian): 9.9 µM | GI50 (786-0 renal): 1.93 µM | TGI (786-0 renal): 8.37 µM | GI50 (HL-60(TB) leukemia): 2.47 µM | TGI (HL-60(TB) leukemia): 12.8 µM | GI50 (PC-3 prostate): 2.05 µM | TGI (PC-3 prostate): 9.48 µM | GI50 (HOP-92 NSCLC): 2.6 µM | TGI (HOP-92 NSCLC): 11.9 µM | GI50 (CCRF-CEM leukemia): 1.59 µM | TGI (CCRF-CEM leukemia): 14.4 µM | GI50 (MALME-3M melanoma): 2.14 µM | TGI (MALME-3M melanoma): 9.3 µM | GI50 (EKVX NSCLC): 2.24 µM | TGI (EKVX NSCLC): 13 µM | GI50 (SNB-75 CNS): 1.41 µM | TGI (SNB-75 CNS): 8.29 µM | GI50 (A549 NSCLC): 0.643 µM | TGI (A549 NSCLC): 7.4 µM | GI50 (T-47D breast): 2.39 µM | TGI (T-47D breast): 12.1 µM | GI50 (SN12C renal): 0.914 µM | TGI (SN12C renal): 7.87 µM | GI50 (SF-295 CNS): 1.45 µM | TGI (SF-295 CNS): 16.6 µM | GI50 (SK-MEL-28 melanoma): 3.02 µM | TGI (SK-MEL-28 melanoma): 10.4 µM | GI50 (SNB-19 CNS): 1.58 µM | TGI (SNB-19 CNS): 11.8 µM | GI50 (SW-620 colon): 0.407 µM | TGI (SW-620 colon): 7.7 µM | GI50 (OVCAR-3 ovarian): 2.27 µM | TGI (OVCAR-3 ovarian): 11.1 µM | GI50 (CAKI-1 renal): 1.98 µM | TGI (CAKI-1 renal): 12 µM | GI50 (MCF7 breast): 0.58 µM | TGI (MCF7 breast): 7.44 µM | GI50 (UACC-257 melanoma): 3.32 µM | TGI (UACC-257 melanoma): 9.79 µM | GI50 (UO-31 renal): 1.71 µM | TGI (UO-31 renal): 13.9 µM | GI50 (TK-10 renal): 1.32 µM | TGI (TK-10 renal): 13.5 µM | GI50 (SR leukemia): 0.207 µM | TGI (SR leukemia): 6.17 µM | GI50 (COLO 205 colon): 1.23 µM | TGI (COLO 205 colon): 7.1 µM | GI50 (HCT-15 colon): 1.59 µM | TGI (HCT-15 colon): 8.72 µM | GI50 (HCC-2998 colon): 3.93 µM | TGI (HCC-2998 colon): 10.6 µM | GI50 (NCI-H226 lung): 2.26 µM | TGI (NCI-H226 lung): 29 µM | GI50 (MOLT-4 leukemia): 0.209 µM | TGI (MOLT-4 leukemia): 10.9 µM | GI50 (UACC-62 melanoma): 0.767 µM | TGI (UACC-62 melanoma): 3.93 µM | GI50 (HT29 colon): 1.04 µM | TGI (HT29 colon): 7.54 µM | GI50 (MDA-MB-435): 2 µM | TGI (MDA-MB-435): 7.99 µM | GI50 (OVCAR-8 ovarian): 1.47 µM | TGI (OVCAR-8 ovarian): 9.39 µM | GI50 (SK-MEL-5 melanoma): 1.58 µM | TGI (SK-MEL-5 melanoma): 7.14 µM | GI50 (K-562 leukemia): 0.84 µM | TGI (K-562 leukemia): 7.54 µM | GI50 (A498 renal): 1.24 µM | TGI (A498 renal): 7.88 µM | GI50 (MDA-MB-231 breast): 2.61 µM | TGI (MDA-MB-231 breast): 11.5 µM | GI50 (M14 melanoma): 1.71 µM | TGI (M14 melanoma): 7.47 µM | GI50 (U251 CNS): 1.04 µM | TGI (U251 CNS): 7.29 µM | GI50 (HOP-62 NSCLC): 1.24 µM | TGI (HOP-62 NSCLC): 6.73 µM | GI50 (HS 578T breast): 2.34 µM | TGI (HS 578T breast): 12 µM | GI50 (LOX IMVI melanoma): 0.448 µM | TGI (LOX IMVI melanoma): 1.89 µM | GI50 (HCT-116 colon): 0.626 µM | TGI (HCT-116 colon): 6.71 µM | GI50 (RXF 393 renal): 1.89 µM | TGI (RXF 393 renal): 8.27 µM | GI50 (NCI-H522 lung): 0.855 µM | TGI (NCI-H522 lung): 3.66 µM | GI50 (DU-145 prostate): 1.12 µM | TGI (DU-145 prostate): 9.42 µM | GI50 (IGROV1 ovarian): 1.41 µM | TGI (IGROV1 ovarian): 13.1 µM
